The text below walks through data of ChEMBL document CHEMBL3991601, “The target landscape of clinical kinase drugs” (Science, 2017).

The target in assay [1] is T1, Dual specificity mitogen-activated protein kinase kinase 5 (Homo sapiens, UniProt Q13163).
T1 sequence (Q13163 whole entry): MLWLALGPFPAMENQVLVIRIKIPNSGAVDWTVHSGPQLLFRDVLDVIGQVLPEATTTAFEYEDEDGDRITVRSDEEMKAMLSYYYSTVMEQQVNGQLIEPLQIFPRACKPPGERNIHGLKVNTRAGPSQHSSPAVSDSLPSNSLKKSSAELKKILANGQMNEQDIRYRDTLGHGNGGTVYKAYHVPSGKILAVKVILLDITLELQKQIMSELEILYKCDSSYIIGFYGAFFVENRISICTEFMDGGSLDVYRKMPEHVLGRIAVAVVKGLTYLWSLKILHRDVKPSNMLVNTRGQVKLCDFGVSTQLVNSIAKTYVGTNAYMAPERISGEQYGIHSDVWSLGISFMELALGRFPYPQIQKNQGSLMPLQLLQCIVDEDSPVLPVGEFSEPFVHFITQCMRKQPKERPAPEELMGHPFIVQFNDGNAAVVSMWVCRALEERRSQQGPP

The target of assay [2] is Ribosomal protein S6 kinase beta-1 (Homo sapiens, UniProt P23443).
Chain of Ribosomal protein S6 kinase beta-1 (P23443 whole entry): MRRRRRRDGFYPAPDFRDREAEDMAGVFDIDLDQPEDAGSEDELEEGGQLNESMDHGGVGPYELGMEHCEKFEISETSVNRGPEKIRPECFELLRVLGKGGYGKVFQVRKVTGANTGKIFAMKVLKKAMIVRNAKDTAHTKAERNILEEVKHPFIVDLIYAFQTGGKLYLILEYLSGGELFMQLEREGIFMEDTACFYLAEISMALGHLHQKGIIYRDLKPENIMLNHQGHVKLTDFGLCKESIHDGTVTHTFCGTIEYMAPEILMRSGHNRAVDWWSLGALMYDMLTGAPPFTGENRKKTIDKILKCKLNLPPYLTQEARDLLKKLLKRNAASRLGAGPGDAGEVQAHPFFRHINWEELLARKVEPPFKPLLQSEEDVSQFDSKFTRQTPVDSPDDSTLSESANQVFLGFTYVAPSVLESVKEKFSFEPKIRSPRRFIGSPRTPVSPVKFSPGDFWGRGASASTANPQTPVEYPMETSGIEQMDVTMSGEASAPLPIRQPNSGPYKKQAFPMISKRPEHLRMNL
Assay [3] concerns the target Receptor-interacting serine/threonine-protein kinase 2 (Homo sapiens, UniProt O43353).
Assay [4] deals with T2, Mitogen-activated protein kinase kinase kinase 3 (Homo sapiens, UniProt Q99759).
T2 sequence (Q99759 whole entry): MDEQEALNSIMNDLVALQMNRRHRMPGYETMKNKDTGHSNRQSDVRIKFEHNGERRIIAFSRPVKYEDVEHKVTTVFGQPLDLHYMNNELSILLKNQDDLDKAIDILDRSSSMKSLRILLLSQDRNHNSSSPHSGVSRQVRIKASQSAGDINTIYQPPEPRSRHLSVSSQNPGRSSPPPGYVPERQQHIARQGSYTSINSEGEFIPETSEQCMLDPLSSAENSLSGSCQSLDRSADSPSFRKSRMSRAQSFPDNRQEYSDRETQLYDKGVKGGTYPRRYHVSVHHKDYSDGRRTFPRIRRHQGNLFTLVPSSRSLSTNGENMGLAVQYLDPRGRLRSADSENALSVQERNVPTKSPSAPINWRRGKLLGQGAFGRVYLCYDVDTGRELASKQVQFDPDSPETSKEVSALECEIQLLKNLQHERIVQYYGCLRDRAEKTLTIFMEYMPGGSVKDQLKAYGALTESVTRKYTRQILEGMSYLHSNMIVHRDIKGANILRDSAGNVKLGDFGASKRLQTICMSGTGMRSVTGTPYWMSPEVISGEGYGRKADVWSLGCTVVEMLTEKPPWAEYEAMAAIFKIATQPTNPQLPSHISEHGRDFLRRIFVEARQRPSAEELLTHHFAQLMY

In assay [5] the target is Cyclin-dependent kinase 12 (Homo sapiens, UniProt Q9NYV4).
Chain of Cyclin-dependent kinase 12 (Q9NYV4 whole entry): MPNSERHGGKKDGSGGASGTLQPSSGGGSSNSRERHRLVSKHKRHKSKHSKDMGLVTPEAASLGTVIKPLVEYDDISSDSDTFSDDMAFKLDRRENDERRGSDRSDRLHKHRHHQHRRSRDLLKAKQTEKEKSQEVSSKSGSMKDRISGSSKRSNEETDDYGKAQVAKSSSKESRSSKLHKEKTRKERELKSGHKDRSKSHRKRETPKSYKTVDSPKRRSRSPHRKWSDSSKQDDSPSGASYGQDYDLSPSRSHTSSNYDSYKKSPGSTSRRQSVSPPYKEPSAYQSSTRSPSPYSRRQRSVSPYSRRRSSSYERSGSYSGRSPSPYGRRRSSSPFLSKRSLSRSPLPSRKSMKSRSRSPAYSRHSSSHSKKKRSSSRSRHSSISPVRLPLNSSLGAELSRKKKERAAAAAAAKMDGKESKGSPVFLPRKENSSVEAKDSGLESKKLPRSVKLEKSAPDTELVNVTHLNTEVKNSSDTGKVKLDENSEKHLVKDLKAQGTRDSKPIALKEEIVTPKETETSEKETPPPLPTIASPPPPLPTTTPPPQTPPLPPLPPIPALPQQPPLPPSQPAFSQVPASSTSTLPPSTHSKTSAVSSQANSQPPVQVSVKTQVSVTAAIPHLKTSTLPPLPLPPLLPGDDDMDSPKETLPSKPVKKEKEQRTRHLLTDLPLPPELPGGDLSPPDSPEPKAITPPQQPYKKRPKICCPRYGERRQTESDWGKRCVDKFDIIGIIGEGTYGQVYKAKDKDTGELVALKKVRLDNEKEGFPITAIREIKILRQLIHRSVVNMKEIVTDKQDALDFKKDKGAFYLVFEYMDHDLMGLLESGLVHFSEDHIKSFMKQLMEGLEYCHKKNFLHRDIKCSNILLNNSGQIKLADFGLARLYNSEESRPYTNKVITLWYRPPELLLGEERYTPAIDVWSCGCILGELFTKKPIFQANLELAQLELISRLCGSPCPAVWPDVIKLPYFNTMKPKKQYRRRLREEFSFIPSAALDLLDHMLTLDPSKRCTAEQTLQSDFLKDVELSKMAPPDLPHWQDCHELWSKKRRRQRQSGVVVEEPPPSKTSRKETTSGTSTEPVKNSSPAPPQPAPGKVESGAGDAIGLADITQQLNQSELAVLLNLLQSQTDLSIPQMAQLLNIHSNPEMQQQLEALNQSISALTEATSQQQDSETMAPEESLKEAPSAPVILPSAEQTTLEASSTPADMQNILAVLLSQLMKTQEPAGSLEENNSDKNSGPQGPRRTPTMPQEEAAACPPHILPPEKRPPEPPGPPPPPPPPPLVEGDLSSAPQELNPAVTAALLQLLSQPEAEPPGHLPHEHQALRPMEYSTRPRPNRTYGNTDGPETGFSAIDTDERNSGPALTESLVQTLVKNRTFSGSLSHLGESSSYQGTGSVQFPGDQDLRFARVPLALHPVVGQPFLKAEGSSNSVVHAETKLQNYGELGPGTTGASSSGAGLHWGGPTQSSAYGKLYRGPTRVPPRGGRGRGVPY
In assay [6] the target is T3, Peroxisomal acyl-coenzyme A oxidase 3 (Homo sapiens, UniProt O15254).
T3 sequence (O15254 whole entry): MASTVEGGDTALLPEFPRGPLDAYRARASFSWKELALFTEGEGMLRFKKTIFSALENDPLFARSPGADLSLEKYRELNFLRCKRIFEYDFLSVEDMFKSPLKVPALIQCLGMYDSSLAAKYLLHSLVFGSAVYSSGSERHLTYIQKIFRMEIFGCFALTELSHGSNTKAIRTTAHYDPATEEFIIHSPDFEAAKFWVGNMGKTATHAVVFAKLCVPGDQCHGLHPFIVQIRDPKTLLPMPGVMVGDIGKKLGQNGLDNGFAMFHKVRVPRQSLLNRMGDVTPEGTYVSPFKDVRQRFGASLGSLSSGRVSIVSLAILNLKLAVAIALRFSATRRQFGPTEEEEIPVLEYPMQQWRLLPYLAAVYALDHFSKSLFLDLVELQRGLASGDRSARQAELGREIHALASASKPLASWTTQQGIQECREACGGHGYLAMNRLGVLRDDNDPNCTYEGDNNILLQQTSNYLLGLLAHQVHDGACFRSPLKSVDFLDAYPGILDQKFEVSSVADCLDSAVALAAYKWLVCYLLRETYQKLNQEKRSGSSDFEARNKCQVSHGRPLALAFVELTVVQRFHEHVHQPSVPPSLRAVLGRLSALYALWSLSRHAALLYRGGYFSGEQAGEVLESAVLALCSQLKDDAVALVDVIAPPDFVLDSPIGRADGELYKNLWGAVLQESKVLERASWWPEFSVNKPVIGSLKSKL

The target in assay [7] is Insulin-like growth factor 1 receptor (Homo sapiens, UniProt P08069).
Chain of Insulin-like growth factor 1 receptor (P08069 31-736 limits assumed): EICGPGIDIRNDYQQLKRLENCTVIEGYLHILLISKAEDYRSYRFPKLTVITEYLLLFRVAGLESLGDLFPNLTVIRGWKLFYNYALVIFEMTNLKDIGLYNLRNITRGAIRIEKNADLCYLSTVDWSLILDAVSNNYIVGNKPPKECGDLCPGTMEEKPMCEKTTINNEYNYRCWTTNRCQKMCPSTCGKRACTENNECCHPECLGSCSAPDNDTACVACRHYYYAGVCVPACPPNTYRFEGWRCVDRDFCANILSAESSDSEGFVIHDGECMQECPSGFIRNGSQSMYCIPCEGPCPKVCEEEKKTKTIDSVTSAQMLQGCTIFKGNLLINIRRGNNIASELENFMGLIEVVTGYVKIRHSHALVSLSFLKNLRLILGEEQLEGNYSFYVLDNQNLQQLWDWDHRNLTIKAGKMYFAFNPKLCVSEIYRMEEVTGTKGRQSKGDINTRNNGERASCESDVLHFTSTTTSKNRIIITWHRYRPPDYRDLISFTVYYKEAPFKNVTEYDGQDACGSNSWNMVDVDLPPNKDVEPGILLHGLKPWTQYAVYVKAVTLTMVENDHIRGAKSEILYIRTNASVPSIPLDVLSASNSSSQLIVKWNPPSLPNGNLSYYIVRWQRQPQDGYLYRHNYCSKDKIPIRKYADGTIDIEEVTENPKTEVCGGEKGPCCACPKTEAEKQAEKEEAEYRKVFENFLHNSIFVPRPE
Chain of Insulin-like growth factor 1 receptor (P08069 741-1367 limits assumed): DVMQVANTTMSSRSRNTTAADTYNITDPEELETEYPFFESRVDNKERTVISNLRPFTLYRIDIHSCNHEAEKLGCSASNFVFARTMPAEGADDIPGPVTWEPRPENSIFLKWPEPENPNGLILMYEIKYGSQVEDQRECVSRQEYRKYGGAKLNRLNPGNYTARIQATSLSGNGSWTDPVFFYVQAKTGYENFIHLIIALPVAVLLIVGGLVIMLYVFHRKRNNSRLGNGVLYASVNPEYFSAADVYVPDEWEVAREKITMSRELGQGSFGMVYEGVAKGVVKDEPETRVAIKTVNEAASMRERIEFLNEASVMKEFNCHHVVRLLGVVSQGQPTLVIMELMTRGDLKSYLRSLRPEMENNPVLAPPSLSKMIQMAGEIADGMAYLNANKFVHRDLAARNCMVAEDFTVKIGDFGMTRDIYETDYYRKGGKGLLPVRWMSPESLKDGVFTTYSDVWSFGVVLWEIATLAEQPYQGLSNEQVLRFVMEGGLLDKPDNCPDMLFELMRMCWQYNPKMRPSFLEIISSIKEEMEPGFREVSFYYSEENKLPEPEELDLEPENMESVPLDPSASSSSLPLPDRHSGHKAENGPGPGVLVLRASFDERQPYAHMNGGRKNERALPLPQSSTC
In assay [8] the target is T4, Electron transfer flavoprotein subunit beta (Homo sapiens, UniProt P38117).
T4 sequence (P38117 whole entry): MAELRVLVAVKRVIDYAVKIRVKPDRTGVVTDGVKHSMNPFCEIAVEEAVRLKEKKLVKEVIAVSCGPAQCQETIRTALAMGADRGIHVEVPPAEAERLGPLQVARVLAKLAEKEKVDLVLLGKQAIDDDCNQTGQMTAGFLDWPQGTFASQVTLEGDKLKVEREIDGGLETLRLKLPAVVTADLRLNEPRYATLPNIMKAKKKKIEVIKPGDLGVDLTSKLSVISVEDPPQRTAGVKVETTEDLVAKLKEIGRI

SMILES strings stand for the structures. Active and inactive are the calls of the source.
Note: in the data inactive means no Kd found up to 30 µM.

Chain of Receptor-interacting serine/threonine-protein kinase 2 (O43353 whole entry): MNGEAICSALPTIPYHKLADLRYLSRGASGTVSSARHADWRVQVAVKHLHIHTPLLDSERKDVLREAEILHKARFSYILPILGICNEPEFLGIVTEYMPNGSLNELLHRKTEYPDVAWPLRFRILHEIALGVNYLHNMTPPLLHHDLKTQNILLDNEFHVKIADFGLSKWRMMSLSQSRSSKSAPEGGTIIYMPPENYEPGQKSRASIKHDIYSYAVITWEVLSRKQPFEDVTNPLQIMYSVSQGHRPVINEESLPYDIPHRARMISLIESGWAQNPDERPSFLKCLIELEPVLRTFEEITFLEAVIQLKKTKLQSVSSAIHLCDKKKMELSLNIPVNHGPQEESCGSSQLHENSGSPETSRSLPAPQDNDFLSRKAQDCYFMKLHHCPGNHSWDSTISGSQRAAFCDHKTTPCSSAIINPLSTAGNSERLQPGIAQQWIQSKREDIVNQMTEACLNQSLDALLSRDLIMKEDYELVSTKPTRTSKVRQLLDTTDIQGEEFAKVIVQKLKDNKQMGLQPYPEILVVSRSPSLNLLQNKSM

In the case of `CC[C@@H]1C(=O)N(C)c2cnc(Nc3ccc(C(=O)N[C@H]4CC[C@H](N5CCN(CC6CC6)CC5)CC4)cc3OC)nc2N1C(C)C` [VOLASERTIB], the Kd in assay [1], in assay [2], in assay [3], in assay [4], in assay [5] and in assay [6] was > 30 µM (inactive) throughout. For the same compound, the Kd in assay [7] and in assay [8] was > 30 µM (inactive) each time.
Turning to `CCn1c(=O)c(-c2cc[nH]n2)cc2c(C)nc(N)nc21` [VOXTALISIB], the Kd in assay [1], in assay [2], in assay [3], in assay [4], in assay [5] and in assay [6] was > 30 µM (inactive) throughout. The Kd in assay [7] and in assay [8] was > 30 µM (inactive) each time.
Take `OCCn1cc(-c2cnc3nnn(Cc4ccc5ncccc5c4)c3n2)cn1` [PF-04217903]: the Kd in assay [1], in assay [2], in assay [3], in assay [4], in assay [5] and in assay [6] was > 30 µM (inactive) each time. Also, the Kd – broadly, the constant that tells how readily two partners part at equilibrium – in assay [8] is > 30 µM (inactive).
Consider `CO[C@H]1C[C@@H]2CC[C@@H](C)[C@@](O)(O2)C(=O)C(=O)N2CCCC[C@H]2C(=O)O[C@H]([C@H](C)C[C@@H]2CC[C@@H](OCCO)[C@H](OC)C2)CC(=O)[C@H](C)/C=C(\C)[C@@H](O)[C@@H](OC)C(=O)[C@H](C)C[C@H](C)/C=C/C=C/C=C/1C` [EVEROLIMUS], for which the Kd in assay [1], in assay [2], in assay [3], in assay [4], in assay [5] and in assay [6] was > 30 µM (inactive) in each case. Besides, the Kd in assay [7] and in assay [8] was > 30 µM (inactive) each time.
In the case of `CCCS(=O)(=O)Nc1ccc(F)c(C(=O)c2c[nH]c3ncc(-c4ccc(Cl)cc4)cc23)c1F` [VEMURAFENIB], the equilibrium dissociation constant (Kd) was 0.734 µM (active) in assay [1]; > 30 µM (inactive) in assay [2]; 0.427 µM (active) in assay [3]; > 30 µM (inactive) in assay [4]; > 30 µM (inactive) in assay [5]; > 30 µM (inactive) in assay [6]. In addition, the Kd in assay [7] and in assay [8] was > 30 µM (inactive) each time.
Turning to `O=C(Nc1ccc(-c2ccnc(Nc3ccc(N4CCOCC4)cc3)n2)cc1)C1CCCN1` (stereo unspecified) [XL-019], the Kd in assay [1], in assay [2], in assay [3], in assay [4], in assay [5] and in assay [6] was > 30 µM (inactive) in each case. Moreover, the Kd in assay [7] and in assay [8] was > 30 µM (inactive) each time.
Regarding `Cn1ncc(Cl)c1-c1cc(C(=O)N[C@H](CN)Cc2cccc(F)c2)sc1Cl` [AFURESERTIB], the Kd in assay [1], in assay [2], in assay [3], in assay [4], in assay [5] and in assay [6] was > 30 µM (inactive) throughout. Moreover, the Kd in assay [7] and in assay [8] was > 30 µM (inactive) in each case.
As to `CNC(=O)CN1CCC(Oc2cc3c(Nc4cccc(Cl)c4F)ncnc3cc2OC)CC1` [SAPITINIB], the Kd is > 30 µM (inactive) in assay [1]; > 30 µM (inactive) in assay [2]; 0.751 µM (active) in assay [3]; > 30 µM (inactive) in assay [4]; > 30 µM (inactive) in assay [5]; > 30 µM (inactive) in assay [6]. Besides, the Kd in assay [7] and in assay [8] was > 30 µM (inactive) throughout.
In the case of `CC(=O)Nc1cccc(-n2c(=O)n(C3CC3)c(=O)c3c(Nc4ccc(I)cc4F)n(C)c(=O)c(C)c32)c1` [TRAMETINIB], the Kd in assay [1], in assay [2], in assay [3], in assay [4], in assay [5] and in assay [6] was > 30 µM (inactive) in each case. Also, the Kd in assay [7] and in assay [8] was > 30 µM (inactive) throughout.
On to `COC(=O)N[C@@H](C)CNc1nccc(-c2cn(C(C)C)nc2-c2cc(Cl)cc(NS(C)(=O)=O)c2F)n1` [ENCORAFENIB], for which the Kd is > 30 µM (inactive) in assay [1]; > 30 µM (inactive) in assay [2]; 0.323 µM (active) in assay [3]; > 30 µM (inactive) in assay [4]; > 30 µM (inactive) in assay [5]; > 30 µM (inactive) in assay [6]. Moreover, the Kd in assay [7] and in assay [8] was > 30 µM (inactive) in each case.
On to `COC(=O)[C@@]1(O)C[C@H]2O[C@]1(C)n1c3ccccc3c3c4c(c5c6ccccc6n2c5c31)C(=O)NC4` [K-252A], for which the Kd in assay [1] is 2.03 µM (active); in assay [2], > 30 µM (inactive); in assay [4], > 30 µM (inactive); in assay [5], > 30 µM (inactive); in assay [6] it was > 30 µM (inactive); in assay [7], > 30 µM (inactive). The Kd in assay [8] was > 30 µM (inactive).
For the compound `CCc1cnn2c(NCc3ccc[n+]([O-])c3)cc(N3CCCC[C@H]3CCO)nc12` [DINACICLIB], the Kd in assay [1], in assay [2], in assay [3], in assay [4], in assay [6] and in assay [8] was > 30 µM (inactive) each time.
Consider `COc1cc2nccc(Oc3ccc(NC(=O)Nc4cc(C)on4)c(Cl)c3)c2cc1OC` [TIVOZANIB], for which the Kd in assay [1], in assay [2], in assay [4], in assay [5], in assay [6] and in assay [7] was > 30 µM (inactive) throughout. In addition, in assay [8], the Kd was > 30 µM (inactive).
In the case of `CNC(=O)c1cc(Oc2ccc(NC(=O)Nc3ccc(Cl)c(C(F)(F)F)c3)c(F)c2)ccn1` [REGORAFENIB], the Kd in assay [1], in assay [2], in assay [4], in assay [5], in assay [6] and in assay [7] was > 30 µM (inactive) each time. In addition, the Kd in assay [8] was > 30 µM (inactive).
